Measured values from the supplement of paper PMC11208160.

Assay: recombinant barcode read abundance after kanamycin selection (control-corrected) (log10(CPM+1)); higher = more efficient recombination; sequences stand for … in AGTGCAGAGAAAATCGGCCAGTTTTCTCTGCCTGCAGTCCGCATGCCGT…AGATTTATGCAGCGGACTGCCTTTCTCCCAAAGTGATAAACCGGACAGTATCATGGACCGGTTTTCCCGGTAATCCGTATTTGCAAGGTTGGTTTCACT; site = the 11-nt target
Procedure: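 Pooled E. coli target-specificity screen for the IS621 bridge recombinase. Each library plasmid pairs an 11-nt target (CT core) with a bridge RNA whose target-binding loop (9-nt LTG + 4-nt RTG) is reprogrammed; the rest of the 177-nt WT IS621 bridge RNA scaffold is fixed. The plasmid is co-electroporated with a WT donor plasmid; recombinase is induced with 0.1 mM IPTG and recombinants are selected on kanamycin. Recombinant barcodes are sequenced, converted to CPM, averaged over two biological replicates and corrected by the unselected control CPM. Molecule = full bridge RNA written as DNA: LTG = specificity nt 1-9, RTG = reverse complement of specificity nt 8-11, in the WT scaffold.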
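Note: IS621 recombinase and bridge RNA in Escherichia coli cells.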

In the case of “ACGCACTCTTGGGTTCTAACCTGTTGCCG (site ACGCACTCTCG)”, the “recombinant barcode read abundance (log10)” value is reported as 0.646.

In the case of “ACGCACTCTTGGGTTCTAACCTGTTGCCG (site GATGGTACTAT)”, the “recombinant barcode read abundance (log10)” value is reported as 0.0148.

In the case of “ACGCATTCTTGGGTTCTAACCTGTTGCCT (site ACGCAATCTAG)”, the “recombinant barcode read abundance (log10)” value is reported as 0.0565.

In the case of “ACGCATTCTTGGGTTCTAACCTGTTGCCT (site ACGCACTCTAG)”, the “recombinant barcode read abundance (log10)” value is reported as 0.123.

For “ACGCATTCTTGGGTTCTAACCTGTTGCCT (site ACGCAGTCTAG)”, the “recombinant barcode read abundance (log10)” value was 0.0603.

In the case of “ACGCATTCTTGGGTTCTAACCTGTTGCCT (site ACGCATTCTAG)”, the “recombinant barcode read abundance (log10)” value is reported as 0.355.

For “ACGCGCCCTTGGGTTCTAACCTGTTGCAC (site ACGCGCCCTGT)”, the “recombinant barcode read abundance (log10)” value was 0.152.

For “ACGCGCCCTTGGGTTCTAACCTGTTGCAC (site CCGCGCCCTAT)”, the “recombinant barcode read abundance (log10)” value was 0.0707.

In the case of “ACGCTATCTTGGGTTCTAACCTGTTGCTT (site ACGCTATCTAA)”, the “recombinant barcode read abundance (log10)” value is reported as 0.13.

With “ACGCTATCTTGGGTTCTAACCTGTTGCTT (site CTAGCGACTCG)” the “recombinant barcode read abundance (log10)” value was 0.159.

For “ACGGCATCTTGGGTTCTAACCTGTTGCCT (site ACGGCATCTAG)”, the “recombinant barcode read abundance (log10)” value was 0.0883.

In the case of “ACGGCATCTTGGGTTCTAACCTGTTGCCT (site ACGGCCTCTAA)”, the “recombinant barcode read abundance (log10)” value is reported as 0.225.

With “ACGGGCTCTTGGGTTCTAACCTGTTGCTT (site ACGGGCTCTAA)” the “recombinant barcode read abundance (log10)” value was 2.69.

With “ACGGGCTCTTGGGTTCTAACCTGTTGCTT (site AGGGGCTCTCA)” the “recombinant barcode read abundance (log10)” value was 0.032.

For “ACGGTCACTTGGGTTCTAACCTGTTGCCG (site ACGGTCACTCG)”, the “recombinant barcode read abundance (log10)” value was 0.435.

With “ACGGTCACTTGGGTTCTAACCTGTTGCCG (site AGGGGCACTCG)” the “recombinant barcode read abundance (log10)” value was 0.533.

For “ACGTCAACTTGGGTTCTAACCTGTTGCCT (site ACATCAACTAG)”, the “recombinant barcode read abundance (log10)” value was 0.192.

In the case of “ACGTCAACTTGGGTTCTAACCTGTTGCCT (site ACCTCAACTAG)”, the “recombinant barcode read abundance (log10)” value is reported as 0.454.

With “ACGTCAACTTGGGTTCTAACCTGTTGCCT (site ACGTCAACTAG)” the “recombinant barcode read abundance (log10)” value was 0.0389.

With “ACGTCAACTTGGGTTCTAACCTGTTGCCT (site ACTTCAACTAG)” the “recombinant barcode read abundance (log10)” value was 0.0307.

With “ACGTTTCCTTGGGTTCTAACCTGTTGCAT (site AAGTTTCCTAC)” the “recombinant barcode read abundance (log10)” value was 0.0104.

For “ACGTTTCCTTGGGTTCTAACCTGTTGCAT (site ACGTTTCCTAT)”, the “recombinant barcode read abundance (log10)” value was 0.0487.

For “ACTAAGTCTTGGGTTCTAACCTGTTGCCT (site AATAAGTCTAG)”, the “recombinant barcode read abundance (log10)” value was 0.106.

In the case of “ACTAAGTCTTGGGTTCTAACCTGTTGCCT (site ACTAAGTCTAG)”, the “recombinant barcode read abundance (log10)” value is reported as 0.53.

With “ACTAAGTCTTGGGTTCTAACCTGTTGCCT (site AGTAAGTCTAG)” the “recombinant barcode read abundance (log10)” value was 0.0249.

In the case of “ACTAAGTCTTGGGTTCTAACCTGTTGCCT (site ATTAAGTCTAG)”, the “recombinant barcode read abundance (log10)” value is reported as 0.0792.

With “ACTACTACTTGGGTTCTAACCTGTTGCCA (site ACTACTACTTG)” the “recombinant barcode read abundance (log10)” value was 0.0676.

With “ACTACTACTTGGGTTCTAACCTGTTGCCA (site GGTACTACTTG)” the “recombinant barcode read abundance (log10)” value was 0.433.

With “ACTAGAACTTGGGTTCTAACCTGTTGCAA (site ACTAGAACTTT)” the “recombinant barcode read abundance (log10)” value was 0.402.

For “ACTAGAACTTGGGTTCTAACCTGTTGCAA (site ACTAGGACTCT)”, the “recombinant barcode read abundance (log10)” value was 0.116.

For “ACTAGCTCTTGGGTTCTAACCTGTTGCTA (site ACTAGCTCTTA)”, the “recombinant barcode read abundance (log10)” value was 0.145.

With “ACTAGCTCTTGGGTTCTAACCTGTTGCTA (site ACTAGGTCTTA)” the “recombinant barcode read abundance (log10)” value was 0.0229.
